Results published in patent US20250034171A1, “IMIDAZOPYRIDINE AMIDES AND RELATED COMPOUNDS FOR USE IN THE TREATMENT OF BACTERIAL INFECTIONS” (priority 2021, published 2025).
Values after ≈ are worked out from the molar mass of the structure shown. Like-named read-outs stand apart in the source and are kept apart here.

Tested on: Mycobacterium tuberculosis strain H37Rv
Assay: Test 2: MIC determination against M. tuberculosis, resazurin fluorescence
Assay type: cell-based
Details: Test 2, M. tuberculosis H37Rv; for MIC90: read-out: Bacterial activity MIC90; for IC50: read-out: Bacterial activity pMIC50 (converted)
[1] = Mycobacterium tuberculosis, H37RV

SMILES: O=C(NCc1ccc(-c2nc3n(n2)CC[C@@H](C(F)(F)F)C3)cc1)c1c(C(F)(F)F)nc2n1CCCC2 [Compound 54]
- MIC90 [1]: 0.22 µM (≈ 0.113 µg/mL)
- IC50 [1]: 72400 pM

SMILES: CCc1nc2ccccn2c1C(=O)NCc1ccc(-c2nc3n(n2)CC[C@@H](C(F)(F)F)C3)cc1 [Compound 55]
- MIC90 [1]: 0.0086 µM (≈ 0.00403 µg/mL)
- IC50 [1]: 2950 pM

SMILES: CCc1nc2ccccn2c1C(=O)NCc1ccc(-c2nc3n(n2)CC[C@H](C(F)(F)F)C3)cc1 [Compound 57]
- MIC90 [1]: 0.022 µM (≈ 0.0103 µg/mL)
- IC50 [1]: 6920 pM

SMILES: O=C(NCc1ccc(-c2nc3n(n2)CC[C@H](C(F)(F)F)C3)cc1)c1c(C(F)(F)F)nc2n1CCCC2 [Compound 58]
- MIC90 [1]: 0.39 µM (≈ 0.2 µg/mL)
- IC50 [1]: 95500 pM

SMILES: O=C(NCc1ccc(-c2nc3n(n2)CC[C@H](C(F)(F)F)C3)cc1)c1c(C(F)F)nc2ccccn12 [Compound 60]
- MIC90 [1]: 0.067 µM (≈ 0.0329 µg/mL)
- IC50 [1]: 17400 pM

SMILES: O=C(NCc1ccc(-c2nc3n(n2)CC[C@@H](C(F)(F)F)C3)cc1)c1c(C(F)F)nc2ccccn12 [Compound 61]
- MIC90 [1]: 0.036 µM (≈ 0.0177 µg/mL)
- IC50 [1]: 11000 pM

SMILES: CCc1nc2ccc(C(F)(F)F)cn2c1C(=O)NCc1ccc(-c2nc3n(n2)CC[C@@H](C(F)(F)F)C3)cc1 [Compound 63]
- MIC90 [1]: > 0.46 µM
- IC50 [1]: > 224000 pM

SMILES: CCc1nc2ccc(C(F)(F)F)cn2c1C(=O)NCc1ccc(-c2nc3n(n2)CC[C@H](C(F)(F)F)C3)cc1 [Compound 64]
- MIC90 [1]: > 0.5 µM
- IC50 [1]: > 501000 pM

SMILES: CCc1nc2ncc(OC(F)(F)F)cn2c1C(=O)NCc1ccc(-c2nc3n(n2)CC[C@H](C(F)(F)F)C3)cc1 [Compound 84]
- MIC90 [1]: > 0.38 µM
- IC50 [1]: > 93300 pM

SMILES: CCc1nc2ncc(OC(F)(F)F)cn2c1C(=O)NCc1ccc(-c2nc3n(n2)CC[C@@H](C(F)(F)F)C3)cc1 [Compound 85]
- MIC90 [1]: > 0.5 µM
- IC50 [1]: > 501000 pM

SMILES: CCc1nc2ncccn2c1C(=O)NCc1ccc(-c2nc3n(n2)CC[C@@H](C(F)(F)F)C3)c(C)c1 [Compound 86]
- Bacterial activity pMIC50: 6.98
- MIC90: 0.44 µM (≈ 0.213 µg/mL)

SMILES: CCc1nc2ncccn2c1C(=O)NCc1ccc(-c2nc3n(n2)CC[C@H](C(F)(F)F)C3)c(C)c1 [Compound 87]
- Bacterial activity pMIC50: 6.97
- MIC90: 0.47 µM (≈ 0.227 µg/mL)

SMILES: CCc1nc2ncc(C)cn2c1C(=O)NCc1ccc(-c2cn3c(n2)CCCC3)cc1 [Compound 88]
- MIC90 [1]: 0.099 µM (≈ 0.041 µg/mL)
- IC50 [1]: 37200 pM

SMILES: CCc1nc2nc(C)c(Cl)cn2c1C(=O)NCc1ccc(-c2cn3c(n2)CC(C(F)(F)F)CC3)cc1 (stereo not shown) [Compound 90]
- MIC90 [1]: 0.15 µM (≈ 0.0775 µg/mL)
- IC50 [1]: 60300 pM

SMILES: CCc1nc2nc(C)ccn2c1C(=O)NCc1ccc(-c2nc3n(n2)CCC(C)C3)cc1 (stereo not shown) [Compound 92]
- MIC90 [1]: 0.2 µM (≈ 0.0859 µg/mL)
- IC50 [1]: 61700 pM

SMILES: CCc1nc2ncc(C)cn2c1C(=O)NCc1ccc(-c2nc3n(n2)CCC(F)C3)cc1 (stereo not shown) [Compound 96]
- MIC90 [1]: 0.094 µM (≈ 0.0407 µg/mL)
- IC50 [1]: 33900 pM

SMILES: CCc1nc2ncc(C)cn2c1C(=O)NCc1ccc(-c2nc3n(n2)CCC(C)C3)c(F)c1 (stereo not shown) [Compound 97]
- MIC90 [1]: 0.057 µM (≈ 0.0255 µg/mL)
- IC50 [1]: 19100 pM

SMILES: CCOC1CCn2nc(-c3ccc(CNC(=O)c4c(CC)nc5ncc(C)cn45)cc3)nc2C1 (stereo not shown) [Compound 98]
- MIC90 [1]: 0.11 µM (≈ 0.0506 µg/mL)
- IC50 [1]: 27500 pM

SMILES: CCc1nc2nc(C)ccn2c1C(=O)NCc1ccc(-c2nc3n(n2)CCC(C(F)F)C3)cc1 (stereo not shown) [Compound 99]
- MIC90 [1]: 0.22 µM (≈ 0.102 µg/mL)
- IC50 [1]: 70800 pM

SMILES: Cc1cnc2nc(C(C)C)c(C(=O)NCc3ccc(-c4cn5c(n4)CC(C(F)(F)F)CC5)cc3)n2c1 (stereo not shown) [Compound 100]
- MIC90 [1]: 0.2 µM (≈ 0.0993 µg/mL)
- IC50 [1]: 61700 pM

SMILES: O=C(NCc1cnc(-c2cn3c(n2)CC(C(F)(F)F)CC3)c(F)c1)c1c(C(F)(F)F)nc2ccccn12 (stereo not shown) [Compound 101]
- MIC90 [1]: 3.95 µM (≈ 2.08 µg/mL)
- IC50 [1]: 2e+06 pM

SMILES: CCc1nc2ncc(C)cn2c1C(=O)NCc1ccc(-c2nc3n(n2)CCC(OC)C3)c(F)c1 (stereo not shown) [Compound 107]
- MIC90 [1]: 0.33 µM (≈ 0.153 µg/mL)
- IC50 [1]: 135000 pM

SMILES: CCc1nc2ncc(C)cn2c1C(=O)NCc1ccc(-c2cn3c(n2)CC(CC)CC3)cc1 (stereo not shown) [Compound 109]
- Bacterial activity pMIC50: 8.04
- MIC90: 0.024 µM (≈ 0.0106 µg/mL)

SMILES: CCc1nc2ncc(C)cn2c1C(=O)NCc1ccc(-c2nc3n(n2)CCC(CC(F)(F)F)C3)cc1 (stereo not shown) [Compound 110]
- MIC90 [1]: 0.016 µM (≈ 0.00796 µg/mL)
- IC50 [1]: 5890 pM

SMILES: CCc1nc2ncc(OC)cn2c1C(=O)NCc1ccc(-c2cn3c(n2)C[C@H](C(F)(F)F)CC3)cc1 [Compound 111]
- MIC90 [1]: 0.012 µM (≈ 0.00598 µg/mL)
- IC50 [1]: 4680 pM

SMILES: CCc1nc2ncc(OC)cn2c1C(=O)NCc1ccc(-c2cn3c(n2)C[C@@H](C(F)(F)F)CC3)cc1 [Compound 112]
- MIC90 [1]: 0.027 µM (≈ 0.0135 µg/mL)
- IC50 [1]: 8510 pM

SMILES: CCc1nc2cc(F)ccn2c1C(=O)NCc1ccc(-c2cn3c(n2)C[C@@H](C(F)(F)F)CC3)cc1 [Compound 113]
- MIC90 [1]: 0.034 µM (≈ 0.0165 µg/mL)
- IC50 [1]: 12900 pM

SMILES: CCc1nc2cc(F)ccn2c1C(=O)NCc1ccc(-c2cn3c(n2)C[C@H](C(F)(F)F)CC3)cc1 [Compound 114]
- MIC90 [1]: 0.032 µM (≈ 0.0155 µg/mL)
- IC50 [1]: 7590 pM

SMILES: CCc1nc2ncc(C)cn2c1C(=O)NCc1ccc(-c2nc3n(n2)CCC(C)(COC)C3)cc1 (stereo not shown) [Compound 115]
- MIC90 [1]: 0.096 µM (≈ 0.0455 µg/mL)
- IC50 [1]: 24500 pM

SMILES: CCc1nc2ncc(C)cn2c1C(=O)NCc1ccc(-c2cn3c(n2)CCC(C(F)(F)F)C3)cc1 (stereo not shown) [Compound 116]
- MIC90 [1]: 0.0097 µM (≈ 0.00468 µg/mL)
- IC50 [1]: 4570 pM

SMILES: CCc1nc2ncc(C)cn2c1C(=O)NCc1ccc(-c2cn3c(n2)CC(C(F)(F)F)CC3)c(F)c1 (stereo not shown) [Compound 117]
- MIC90 [1]: 0.077 µM (≈ 0.0385 µg/mL)
- IC50 [1]: 3090 pM

SMILES: CCc1nc2ncc(OC)cn2c1C(=O)NCc1ccc(-c2nc3n(n2)CCCC3)cc1 [Compound 119]
- Bacterial activity pMIC50: 7.72
- MIC90: 0.052 µM (≈ 0.0224 µg/mL)

SMILES: CCc1nc2ncc(C)cn2c1C(=O)NCc1ccc(-c2cn3c(n2)CC(C(F)(F)F)CC3)c(C)c1 (stereo not shown) [Compound 121]
- MIC90 [1]: 0.035 µM (≈ 0.0174 µg/mL)
- IC50 [1]: 8710 pM

SMILES: CCc1nc2ncc(C)cn2c1C(=O)NCc1cnc(-c2cn3c(n2)CC(C(F)(F)F)CC3)cc1C (stereo not shown) [Compound 122]
- MIC90 [1]: 0.21 µM (≈ 0.104 µg/mL)
- IC50 [1]: 43700 pM

SMILES: CCc1nc2ncc(C)cn2c1C(=O)NCc1cnc(-c2cn3c(n2)CC(C(F)(F)F)CC3)c(C)c1 (stereo not shown) [Compound 123]
- MIC90 [1]: > 0.5 µM
- IC50 [1]: > 501000 pM

SMILES: CCc1nc2ncc(C)cn2c1C(=O)NCc1ccc(-c2nc3n(n2)CC(C)CC3)cc1 (stereo not shown) [Compound 125]
- MIC90 [1]: 0.04 µM (≈ 0.0172 µg/mL)
- IC50 [1]: 11200 pM

SMILES: CCc1nc2ccccn2c1C(=O)NCc1ccc(-c2nc3n(n2)CCC(C(C)(F)F)C3)cc1 (stereo not shown) [Compound 133]
- MIC90 [1]: 0.051 µM (≈ 0.0237 µg/mL)
- IC50 [1]: 11700 pM

SMILES: CCc1nc2n(c1C(=O)NCc1ccc(-c3nc4n(n3)CCC(C(C)(F)F)C4)cc1)CCCC2 (stereo not shown) [Compound 134]
- MIC90 [1]: 0.12 µM (≈ 0.0562 µg/mL)
- IC50 [1]: 25700 pM

SMILES: CCc1nc2nc(CN)ccn2c1C(=O)NCc1ccc(-c2nc3n(n2)CCC(C(F)(F)F)C3)cc1 (stereo not shown) [Compound 138]
- MIC90 [1]: > 0.5 µM
- IC50 [1]: > 501000 pM

SMILES: CCc1nc2n(c1C(=O)NCc1ccc(-c3nc4n(n3)CC[C@@H](C(F)(F)F)C4)cc1)C[C@H](OC)CC2 [Compound 140]
- MIC90 [1]: 0.33 µM (≈ 0.166 µg/mL)
- IC50 [1]: 115000 pM

SMILES: CCc1nc2n(c1C(=O)NCc1ccc(-c3nc4n(n3)CC[C@H](C(F)(F)F)C4)cc1)C[C@H](OC)CC2 [Compound 141]
- MIC90 [1]: > 0.5 µM
- IC50 [1]: 166000 pM

SMILES: CCc1nc2n(c1C(=O)NCc1ccc(-c3cn4c(n3)C[C@@H](C(F)(F)F)CC4)cc1)CCCC2 [Compound 142]
- MIC90 [1]: 0.097 µM (≈ 0.0457 µg/mL)
- IC50 [1]: 22900 pM

SMILES: CCc1nc2ncc(C)cn2c1C(=O)NCc1ccc(-c2nc3n(n2)CCC(COC)C3)c(F)c1 (stereo not shown) [Compound 143]
- MIC90 [1]: 0.092 µM (≈ 0.0439 µg/mL)
- IC50 [1]: 33100 pM

SMILES: CCc1nc2cc(F)ccn2c1C(=O)NCc1ccc(-c2nc3n(n2)CCC(C(C)(F)F)C3)cc1 (stereo not shown) [Compound 145]
- MIC90 [1]: 0.041 µM (≈ 0.0198 µg/mL)
- IC50 [1]: 11500 pM
